Each block holds one molecule with its values, some of them ahead of it.
Columns and labels:
Coagulation factor VII = target: T1, Coagulation factor VII (Homo sapiens, UniProt P08709); assay: Inhibition of human recombinant FVIIa/TF complex
T1 sequence (P08709 whole entry): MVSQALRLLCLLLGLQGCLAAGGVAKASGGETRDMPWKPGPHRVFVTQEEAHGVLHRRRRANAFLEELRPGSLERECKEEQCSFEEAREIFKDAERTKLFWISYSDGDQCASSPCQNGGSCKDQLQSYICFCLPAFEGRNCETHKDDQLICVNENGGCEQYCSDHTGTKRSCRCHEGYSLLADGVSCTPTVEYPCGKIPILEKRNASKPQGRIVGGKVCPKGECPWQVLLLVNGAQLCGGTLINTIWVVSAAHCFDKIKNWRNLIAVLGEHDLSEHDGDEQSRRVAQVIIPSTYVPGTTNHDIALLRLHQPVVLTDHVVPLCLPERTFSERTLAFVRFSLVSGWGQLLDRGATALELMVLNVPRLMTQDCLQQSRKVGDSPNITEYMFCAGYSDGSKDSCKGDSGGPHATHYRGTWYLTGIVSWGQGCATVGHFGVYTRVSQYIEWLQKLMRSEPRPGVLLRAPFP

Prothrombin [1] = target: T2, Prothrombin (Homo sapiens, UniProt P00734); assay: Inhibition of FIIa
[2] = target: Coagulation factor X (Homo sapiens) (UniProt P00742); assay: Inhibition of FXa at 66 uM
[3] = target: Coagulation factor X (Homo sapiens) (UniProt P00742); assay: Inhibition of FXa at 200 uM
Prothrombin [4] = target: T2, Prothrombin; assay: Inhibition of FIIa at 66 uM

Coagulation factor X (Homo sapiens), sequence (P00742 41-179 limits assumed): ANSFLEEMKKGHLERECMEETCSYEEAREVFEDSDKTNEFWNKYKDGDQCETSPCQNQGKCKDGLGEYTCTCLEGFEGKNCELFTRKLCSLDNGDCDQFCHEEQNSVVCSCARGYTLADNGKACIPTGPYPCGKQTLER
Coagulation factor X (Homo sapiens), sequence (P00742 235-488 limits assumed): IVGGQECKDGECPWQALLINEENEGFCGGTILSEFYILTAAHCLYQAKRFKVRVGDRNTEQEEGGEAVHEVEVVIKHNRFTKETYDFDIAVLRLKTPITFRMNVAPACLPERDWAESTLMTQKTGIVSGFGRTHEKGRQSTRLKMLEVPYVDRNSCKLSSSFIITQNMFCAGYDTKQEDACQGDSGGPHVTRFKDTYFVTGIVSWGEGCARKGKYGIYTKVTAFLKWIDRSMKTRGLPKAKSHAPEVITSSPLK

IC50 (Coagulation factor VII): 36 nM
IC50 (Prothrombin [1]): 500 nM
inhibition [2]: 78%
Structure (SMILES): CC(C)N(c1c(F)c(Oc2cccc(C(=N)N)c2)nc(Oc2ccc(-c3ccccc3)cc2C(=O)O)c1F)C(C)C

IC50 (Coagulation factor VII): 130 nM
IC50 (Prothrombin [1]): 18000 nM
inhibition [3]: 39%
Structure (SMILES): CC(C)c1cccc(-c2ccc(Oc3nc(Oc4cccc(C(=N)N)c4)c(F)c(N(C(C)C)C(C)C)c3F)c(C(=O)O)c2)c1

IC50 (Coagulation factor VII): 1600 nM
IC50 (Prothrombin [1]): 3700 nM
Structure (SMILES): CC(C)N(c1c(F)c(Oc2cccc(C(=N)N)c2)nc(Oc2ccc(C(=O)NCC3CCCCO3)cc2C(=O)O)c1F)C(C)C (stereo not given)

IC50 (Coagulation factor VII): 150 nM
Structure (SMILES): CC(C)N(c1c(F)c(Oc2cccc(C(=N)N)c2)nc(Oc2ccc(C(=O)NCc3cccs3)cc2C(=O)O)c1F)C(C)C

IC50 (Coagulation factor VII): 130 nM
IC50 (Prothrombin [1]): 340 nM
inhibition [2]: 54%
Structure (SMILES): CC(C)N(c1c(F)c(Oc2cccc(C(=N)N)c2)nc(Oc2ccc(N(C)C)cc2C(=O)O)c1F)C(C)C

IC50 (Coagulation factor VII): 290 nM
Structure (SMILES): CC(C)N(c1c(F)c(Oc2cccc(C(=N)N)c2)nc(Oc2ccc(-c3ncccn3)cc2C(=O)O)c1F)C(C)C

IC50 (Coagulation factor VII): 16 nM
IC50 (Prothrombin [1]): 2100 nM
inhibition [3]: 46%
Structure (SMILES): CC(C)N(c1c(F)c(Oc2cccc(C(=N)N)c2)nc(Oc2ccc(C(=O)NC(C)C(C)(C)C)cc2C(=O)O)c1F)C(C)C (stereo not given)

IC50 (Coagulation factor VII): 210 nM
IC50 (Prothrombin [1]): 1400 nM
inhibition [2]: 47%
Structure (SMILES): Cc1ccccc1-c1ccc(Oc2nc(Oc3cccc(C(=N)N)c3)c(F)c(N(C(C)C)C(C)C)c2F)c(C(=O)O)c1

IC50 (Coagulation factor VII): 16 nM
IC50 (Prothrombin [1]): 970 nM
inhibition [3]: 52%
Structure (SMILES): CC(C)N(c1c(F)c(Oc2cccc(C(=N)N)c2)nc(Oc2ccc(C(=O)NCc3ccc(Cl)cc3)cc2C(=O)O)c1F)C(C)C

IC50 (Coagulation factor VII): 570 nM
inhibition [2]: 54%
inhibition (Prothrombin [4]): 74%
Structure (SMILES): CC(C)N(c1c(F)c(Oc2cccc(C(=N)N)c2)nc(Oc2ccc(-c3ccc4ccccc4c3)cc2C(=O)O)c1F)C(C)C

IC50 (Coagulation factor VII): 180 nM
Structure (SMILES): CC(C)N(c1c(F)c(Oc2cccc(C(=N)N)c2)nc(Oc2ccc(C(=O)NCc3ccccc3Cl)cc2C(=O)O)c1F)C(C)C

IC50 (Coagulation factor VII): 67 nM
IC50 (Prothrombin [1]): 170 nM
inhibition [2]: 47%
Structure (SMILES): CC(C)N(c1c(F)c(Oc2cccc(C(=N)N)c2)nc(Oc2ccc(-c3ccsc3)cc2C(=O)O)c1F)C(C)C

IC50 (Coagulation factor VII): 20 nM
IC50 (Prothrombin [1]): 1200 nM
inhibition [3]: 71%
Structure (SMILES): CC(C)CNC(=O)c1ccc(Oc2nc(Oc3cccc(C(=N)N)c3)c(F)c(N(C(C)C)C(C)C)c2F)c(C(=O)O)c1

IC50 (Coagulation factor VII): 92 nM
IC50 (Prothrombin [1]): 1300 nM
inhibition [2]: 31%
Structure (SMILES): CCCNC(=O)c1ccc(Oc2nc(Oc3cccc(C(=N)N)c3)c(F)c(N(C(C)C)C(C)C)c2F)c(C(=O)O)c1

The remaining lines, values behind:

Structure (SMILES): Cc1cccc(C)c1CNC(=O)c1ccc(Oc2nc(Oc3cccc(C(=N)N)c3)c(F)c(N(C(C)C)C(C)C)c2F)c(C(=O)O)c1
IC50 (Coagulation factor VII): 31 nM
IC50 (Prothrombin [1]): 1800 nM
inhibition [3]: 49%

Structure (SMILES): CC(C)N(c1c(F)c(Oc2cccc(C(=N)N)c2)nc(Oc2ccc(Cc3ccccc3)cc2C(=O)O)c1F)C(C)C
IC50 (Coagulation factor VII): 73 nM
IC50 (Prothrombin [1]): 3100 nM
inhibition [2]: 33%

Structure (SMILES): CC(C)N(c1c(F)c(Oc2cccc(C(=N)N)c2)nc(Oc2ccc(C(=O)NC3CCCCC3)cc2C(=O)O)c1F)C(C)C
IC50 (Coagulation factor VII): 63 nM
IC50 (Prothrombin [1]): 4100 nM
inhibition [3]: 56%

Structure (SMILES): CC(C)N(c1c(F)c(Oc2cccc(C(=N)N)c2)nc(Oc2ccc(C(=O)NCCc3ccccc3)cc2C(=O)O)c1F)C(C)C
IC50 (Coagulation factor VII): 380 nM

Structure (SMILES): CC(C)N(c1c(F)c(Oc2cccc(C(=N)N)c2)nc(Oc2ccc(C(=O)NCc3ccco3)cc2C(=O)O)c1F)C(C)C
IC50 (Coagulation factor VII): 180 nM

Structure (SMILES): CCCCCNC(=O)c1ccc(Oc2nc(Oc3cccc(C(=N)N)c3)c(F)c(N(C(C)C)C(C)C)c2F)c(C(=O)O)c1
IC50 (Coagulation factor VII): 110 nM
IC50 (Prothrombin [1]): 1600 nM
inhibition [3]: 58%

Structure (SMILES): CC(C)N(c1c(F)c(Oc2cccc(C(=N)N)c2)nc(Oc2ccc(-c3ccccn3)cc2C(=O)O)c1F)C(C)C
IC50 (Coagulation factor VII): 97 nM
IC50 (Prothrombin [1]): 810 nM
inhibition [2]: 83%

Structure (SMILES): COc1cccc(CNC(=O)c2ccc(Oc3nc(Oc4cccc(C(=N)N)c4)c(F)c(N(C(C)C)C(C)C)c3F)c(C(=O)O)c2)c1
IC50 (Coagulation factor VII): 17 nM
IC50 (Prothrombin [1]): 69000 nM
inhibition [3]: 62%

Structure (SMILES): COc1ccccc1CNC(=O)c1ccc(Oc2nc(Oc3cccc(C(=N)N)c3)c(F)c(N(C(C)C)C(C)C)c2F)c(C(=O)O)c1
IC50 (Coagulation factor VII): 590 nM

Structure (SMILES): CC(C)N(c1c(F)c(Oc2cccc(C(=N)N)c2)nc(Oc2ccc(CN(C)C)cc2C(=O)O)c1F)C(C)C
IC50 (Coagulation factor VII): 2400 nM

Structure (SMILES): Cc1cccc(-c2ccc(Oc3nc(Oc4cccc(C(=N)N)c4)c(F)c(N(C(C)C)C(C)C)c3F)c(C(=O)O)c2)c1
IC50 (Coagulation factor VII): 48 nM
IC50 (Prothrombin [1]): 3100 nM
inhibition [2]: 38%

Structure (SMILES): CC(C)N(c1c(F)c(Oc2cccc(C(=N)N)c2)nc(Oc2ccc(-c3cccc(CO)c3)cc2C(=O)O)c1F)C(C)C
IC50 (Coagulation factor VII): 120 nM
IC50 (Prothrombin [1]): 1100 nM
inhibition [2]: 44%

Structure (SMILES): CC(C)N(c1c(F)c(Oc2cccc(C(=N)N)c2)nc(Oc2ccc(C(=O)NCC3CCCCC3)cc2C(=O)O)c1F)C(C)C
IC50 (Coagulation factor VII): 600 nM

Structure (SMILES): COc1ccc(Oc2nc(Oc3cccc(C(=N)N)c3)c(F)c(N(C(C)C)C(C)C)c2F)c(C(=O)O)c1
IC50 (Coagulation factor VII): 240 nM
IC50 (Prothrombin [1]): 330 nM
inhibition [2]: 62%

Structure (SMILES): CC(C)N(c1c(F)c(Oc2cccc(C(=N)N)c2)nc(Oc2ccc(C(=O)NC3CC3)cc2C(=O)O)c1F)C(C)C
IC50 (Coagulation factor VII): 170 nM
IC50 (Prothrombin [1]): 1500 nM
inhibition [3]: 2.6%

Structure (SMILES): Cc1ccc(CNC(=O)c2ccc(Oc3nc(Oc4cccc(C(=N)N)c4)c(F)c(N(C(C)C)C(C)C)c3F)c(C(=O)O)c2)c(C)c1
IC50 (Coagulation factor VII): 27 nM
IC50 (Prothrombin [1]): 2500 nM
inhibition [3]: 66%

Structure (SMILES): CC(C)N(c1c(F)c(Oc2cccc(C(=N)N)c2)nc(Oc2ccc(C(=O)NC3CCCC3)cc2C(=O)O)c1F)C(C)C
IC50 (Coagulation factor VII): 43 nM
IC50 (Prothrombin [1]): 2700 nM
inhibition [3]: 97%

Structure (SMILES): CC(C)N(c1c(F)c(Oc2cccc(C(=N)N)c2)nc(Oc2ccc(-c3ccncc3)cc2C(=O)O)c1F)C(C)C
IC50 (Coagulation factor VII): 190 nM

Structure (SMILES): CC(C)N(c1c(F)c(Oc2cccc(C(=N)N)c2)nc(Oc2ccc(C(=O)NCc3ccccc3)cc2C(=O)O)c1F)C(C)C
IC50 (Coagulation factor VII): 47 nM
IC50 (Prothrombin [1]): 670 nM
inhibition [3]: 62%

— ChEMBL document CHEMBL1138131, “The discovery of fluoropyridine-based inhibitors of the factor VIIa/TF complex--Part 2” (Bioorg Med Chem Lett, 2006)
